Results: publication PMC8624998, “Synthesis and Antiproliferative Evaluation of 3-Chloroazetidin-2-ones with Antimitotic Activity: Heterocyclic Bridged Analogues of Combretastatin A-4” (Pharmaceuticals, 2021)
Like-named read-outs stand apart in the source and are kept apart here. Marks after values point to notes of the source that are not given here.

Columns and labels:
[1] = system: MCF-7 cells; assay: Cell viability assay (MTT/AlamarBlue), antiproliferative activity; type: cell-based, human; conditions: for IC50: Homo sapiens, MCF7, 72 h, read-out: IC50 (MCF-7, 72 h)
Description: […]. The introduction of the halogen substituent at C-3 was examined in an effort to investigate the effect on the activity of this substituent, and subsequently optimising the cytotoxic effects against MCF-7 human breast cancer cells.
The human breast carcinoma cell line MCF-7 was purchased from the European Collection of Animal Cell Cultures (ECACC). Triple negative breast cancer Hs578T cells and its invasive variant Hs578Ts(i)8 were a kind gift from Dr. Susan McDonnell, School of Chemical and Bioprocess Engineering, University College Dublin. U266 cells were a gift from Dr. Tony McElligott, School of Medicine, St James’s Hospital, Trinity College Dublin. HT-29 cells were purchased from the European Collection of Cell Cultures (originating from a human adenocarcinoma of the colon). The human breast carcinoma cell line MDA-MB-231 and the HL-60 cells derived from a patient with acute myeloid leukaemia were both obtained from ECACC (Salisbury, UK). The SW-480 cells were a kind gift from Dr. Brian Flood, School of Biochemistry and Immunology, Trinity College Dublin. HEK-293T (normal epithelial embryonic kidney cells) were cultured in Dulbecco’s Modified Eagle’s Medium (DMEM) with GlutaMAXTM-I in the absence of non-essential amino acids. Human breast cancer MCF-7 cells and multiple myeloma U266 cells were cultured in Minimum Essential Media (MEM) with GlutaMAX™-I, supplemented with 1% (v/v) non-essential amino acids, 10% 2(v/v) foetal bovine serum (FBS) and 1% (v/v) penicillin/streptomycin 5000 U/mL. MDA-MB-231 cells were maintained in DMEM supplemented with 10% (v/v) foetal bovine serum, 2 mM L-glutamine and 100 μg/mL penicillin/streptomycin (complete medium). Colon cancer HT-29 and SW-480 and triple negative breast cancer Hs578T and its invasive variant Hs578T8i were cultured in DMEM with GlutaMAX™-I, with the same supplement in the absence of non-essential amino acids. Leukaemia HL-60 cancer cells were cultured in Roswell Park Memorial Institute Media (RPMI-1640) with GlutaMAX™-I, supplemented with 10% FCS media, and 100 μg/mL penicillin/streptomycin as above. Cell numbers were monitored using a haemocytometer. Cell culture flasks were incubated in a humidified incubator (5% CO2/95% air) at 37 °C. All cell lines were sub-cultured three times per week with trypsinisation using TrypLE Express (1X) required for adherent cell lines.
. All stock solutions and serial dilution in ethanol/DMSO were stored at -20 °C. All cells were seeded at a density of 2.5 × 10^4 cells/mL in a 96-well plate (200 μL per well). The cells were incubated in a […] atmosphere at 37 °C for 24 h, then treated with test compound (2 μL of stock solutions per 200-microlitre well) in ethanol to obtain a concentration range of 1 nM–200 μM for the study. The plates were then re-incubated for a further 72 h. Control wells contained an equivalent volume of the vehicle ethanol or DMSO (1% v/v). MTT cell viability assay: The culture medium was removed, and the cells were washed with phosphate buffered saline (PBS, […]). MTT (dissolved in PBS, […]) was added to obtain a final concentration of MTT (1 mg/mL). Cells were incubated at 37 °C for 3 h in the dark. Solubilisation was commenced by the addition of DMSO ([…]) and the cells were maintained at 20 °C in the dark for 20 min before reading the absorbance to ensure complete colour diffusion. The absorbance value of control cells (no added compound) was set to 100% cell viability and absorbance versus cell density per well was determined to assess cell viability using Graph-Pad Prism software. AlamarBlue cell viability assay: Cells were seeded in 96-well plates (e.g., MCF-7, 5 × 10^3 cells/well) and (HT-29 cells, 1 × 10^3 cells/well) and (HL-60 cells, 1 × 10^4 cells/well) with a total volume per well of 200 µL. After 24 h, cells were treated in triplicate with serial dilutions of CA-4 or β-lactam analogues (0.001–100 μM), medium alone or vehicle (1% ethanol (v/v)). […]

## COc1ccc([C@@H]2[C@H](Cl)C(=O)N2c2cc(OC)c(OC)c(OC)c2)cc1 (relative stereo) [Compound 10e cis, Cis-3-chloro-1-(3,4,5-trimethoxyphenyl)-4-(4-methoxyphenyl) azetidin-2-one]
[1]; MCF-7, 72 h
  IC50: 0.317 ± 0.04 µM

## COc1cc(N2C(=O)C(Cl)C2c2ccccc2)cc(OC)c1OC (stereo not shown) [Compound 10a, 3-Chloro-1-(3,4,5-trimethoxyphenyl)-4-phenylazetidin-2-one]
[1]; MCF-7, 72 h
  IC50: 23.4 ± 2.8 µM

## COc1cc(N2C(=O)C(Cl)C2c2ccc(Cl)cc2)cc(OC)c1OC (stereo not shown) [Compound 10b, 3-Chloro-4-(4-chlorophenyl)-1-(3,4,5-trimethoxyphenyl)azetidin-2-one]
[1]; MCF-7, 72 h
  IC50: 1.3 ± 0.17 µM

## COc1cc(N2C(=O)C(Cl)C2c2ccc(Br)cc2)cc(OC)c1OC (stereo not shown) [Compound 10c, 4-(4-Bromophenyl)-3-chloro-1-(3,4,5-trimethoxyphenyl)azetidin-2-one]
[1]; MCF-7, 72 h
  IC50: 0.506 ± 0.11 µM

## COc1cc(N2C(=O)C(Cl)C2c2ccc([N+](=O)[O-])cc2)cc(OC)c1OC (stereo not shown) [Compound 10d, 3-Chloro-1-(3,4,5-trimethoxyphenyl)-4-(4-nitrophenyl)azetidin-2-one]
[1]; MCF-7, 72 h
  IC50: 4.37 ± 0.61 µM

## COc1cc(N2C(=O)C(Cl)C2c2ccc(Oc3ccccc3)cc2)cc(OC)c1OC (stereo not shown) [Compound 10g, 3-Chloro-1-(3,4,5-trimethoxyphenyl)-4-(4-phenoxyphenyl)azetidin-2-one]
[1]; MCF-7, 72 h
  IC50: 64.1 ± 7.3 µM

## COc1cc(N2C(=O)C(Cl)C2c2ccc(OCc3ccccc3)cc2)cc(OC)c1OC (stereo not shown) [Compound 10h, 4-(4-Benzyloxyphenyl)-3-chloro-1-(3,4,5-trimethoxyphenyl)azetidin-2-one]
[1]; MCF-7, 72 h
  IC50: 59.9 ± 6.99 µM
other
  melting point: 96 to 98 °C

## COc1ccc(C2C(Cl)C(=O)N2c2cc(OC)c(OC)c(OC)c2)cc1[N+](=O)[O-] (stereo not shown) [Compound 10m, 3-Chloro-4-(4-methoxy-3-nitrophenyl)-1-(3,4,5-trimethoxyphenyl) azetidin-2-one]
[1]; MCF-7, 72 h
  IC50: 3.09 ± 0.41 µM
other
  melting point: 93 to 95 °C

## COc1cc(N2C(=O)C(Cl)(Cl)C2c2ccccc2)cc(OC)c1OC (stereo not shown) [Compound 11a, 3,3-Dichloro-1-(3,4,5-trimethoxyphenyl)-4-phenylazetidin-2-one]
[1]; MCF-7, 72 h
  IC50: 37.2 ± 3.21 µM
other
  melting point: 80 to 81 °C

## COc1cc(N2C(=O)C(Cl)(Cl)C2c2ccc(Cl)cc2)cc(OC)c1OC (stereo not shown) [Compound 11b, 3,3-Dichloro-4-(4-chlorophenyl)-1-(3,4,5-trimethoxyphenyl)azetidin-2-one]
[1]; MCF-7, 72 h
  IC50: 12.8 ± 1.08 µM
other
  melting point: 150 to 153 °C

## COc1cc(N2C(=O)C(Cl)(Cl)C2c2ccc(Br)cc2)cc(OC)c1OC (stereo not shown) [Compound 11c, 4-(4-Bromophenyl)-3,3-dichloro-1-(3,4,5-trimethoxyphenyl)azetidin-2-one]
[1]; MCF-7, 72 h
  IC50: 18.2 ± 1.83 µM
other
  melting point: 150 to 152 °C

## COc1cc(N2C(=O)C(Cl)(Cl)C2c2ccc([N+](=O)[O-])cc2)cc(OC)c1OC (stereo not shown) [Compound 11d, 3,3-Dichloro-1-(3,4,5-trimethoxyphenyl)-4-(4-nitrophenyl)azetidin-2-one]
[1]; MCF-7, 72 h
  IC50: 61.6 ± 7.61 µM
other
  melting point: 116 to 118 °C

## COc1cc(N2C(=O)C(Cl)(Cl)C2c2ccc(Oc3ccccc3)cc2)cc(OC)c1OC (stereo not shown) [Compound 11g, 3,3-Dichloro-1-(3,4,5-trimethoxyphenyl)-4-(4-phenoxyphenyl)azetidin-2-one]
[1]; MCF-7, 72 h
  IC50: 62.3 ± 10.2 µM
other
  melting point: 82 to 84 °C

## COc1cc(N2C(=O)C(Cl)(Cl)C2c2ccc(OCc3ccccc3)cc2)cc(OC)c1OC (stereo not shown) [Compound 11h, 4-(4-Benzyloxyphenyl)-3,3-dichloro-1-(3,4,5-trimethoxyphenyl) azetidin-2-one]
[1]; MCF-7, 72 h
  IC50: 36.3 ± 3.68 µM

## COc1cc(N2C(=O)C(Cl)(Cl)C2c2cccc3ccccc23)cc(OC)c1OC (stereo not shown) [Compound 11j, 3,3-Dichloro-1-(3,4,5-trimethoxyphenyl)-4-(naphthalen-1-yl)azetidin-2-one]
[1]; MCF-7, 72 h
  IC50: 7.99 ± 0.7 µM
other
  melting point: 146 to 148 °C

## COc1cc(N2C(=O)C(Cl)(Cl)C2c2ccc3ccccc3c2)cc(OC)c1OC (stereo not shown) [Compound 11k, 3,3-Dichloro-1-(3,4,5-trimethoxyphenyl)-4-(naphthalen-2-yl)azetidin-2-one]
[1]; MCF-7, 72 h
  IC50: 0.322 ± 0.04 µM
other
  melting point: 164 to 166 °C

## COc1ccc(C2N(c3cc(OC)c(OC)c(OC)c3)C(=O)C2(Cl)Cl)cc1[N+](=O)[O-] (stereo not shown) [Compound 11m, 3,3-Dichloro-4-(4-methoxy-3-nitrophenyl)-1-(3,4,5-trimethoxyphenyl) azetidin-2-one]
[1]; MCF-7, 72 h
  IC50: 0.353 ± 0.04 µM
other
  melting point: 117 to 119 °C

## COc1ccc(N2C(=O)C(Cl)C2c2cc(OC)c(OC)c(OC)c2)cc1 (stereo not shown) [Compound 12a, 3-Chloro-1-(4-methoxyphenyl)-4-(3,4,5-trimethoxyphenyl)azetidin-2-one]
[1]; MCF-7, 72 h
  IC50: 14.8 ± 1.58 µM
other
  melting point: 101 to 102 °C

## CCOc1ccc(N2C(=O)C(Cl)C2c2cc(OC)c(OC)c(OC)c2)cc1 (stereo not shown) [Compound 12b, 3-Chloro-1-(4-ethoxyphenyl)-4-(3,4,5-trimethoxyphenyl)azetidin-2-one]
[1]; MCF-7, 72 h
  inhibition of cell viability at a concentration of 10 μM: 25% (10 μM) ^c
other
  melting point: 113 to 115 °C

## COc1cc(C2C(Cl)C(=O)N2c2ccc(SC)cc2)cc(OC)c1OC (stereo not shown) [Compound 12c, 3-Chloro-1-(4-(methylthio)phenyl)-4-(3,4,5-trimethoxyphenyl) azetidin-2-one]
[1]; MCF-7, 72 h
  inhibition of cell viability at a concentration of 10 μM: 10% (10 μM) ^c
other
  melting point: 101 to 103 °C

## COc1ccc(N2C(=O)C(Cl)(Cl)C2c2cc(OC)c(OC)c(OC)c2)cc1 (stereo not shown) [Compound 13a, 3,3-Dichloro-4-(3,4,5-trimethoxyphenyl)-1-(4-methoxyphenyl)azetidin-2-one]
[1]; MCF-7, 72 h
  IC50: 45.9 ± 6.73 µM
other
  melting point: 64 to 66 °C

## COc1ccc(C2N(c3cc(OC)cc(OC)c3)C(=O)C2(Cl)Cl)cc1 (stereo not shown) [Compound 15a, 3,3-Dichloro-1-(3,5-dimethoxyphenyl)-4-(4-methoxyphenyl)azetidin-2-one]
[1]; MCF-7, 72 h
  IC50: 6.61 ± 2 µM

## CCOc1ccc(C2N(c3cc(OC)cc(OC)c3)C(=O)C2(Cl)Cl)cc1 (stereo not shown) [Compound 15b, 3,3-Dichloro-1-(3,5-dimethoxyphenyl)-4-(4-ethoxyphenyl)azetidin-2-one]
[1]; MCF-7, 72 h
  IC50: 0.273 ± 0.01 µM

## COc1cc(N2C(=O)C(Br)C2c2ccc(SC)cc2)cc(OC)c1OC (stereo not shown) [Compound 16c, 3-Bromo-4-(4-(methylthio)phenyl)-1-(3,4,5-trimethoxyphenyl)azetidin-2-one]
[1]; MCF-7, 72 h
  IC50: 0.613 ± 0.04 µM

## COc1ccc(C2C(Br)C(=O)N2c2cc(OC)c(OC)c(OC)c2)cc1C (stereo not shown) [Compound 16e, 3-Bromo-4-(4-methoxy-3-methylphenyl)-1-(3,4,5-trimethoxyphenyl) azetidin-2-one]
[1]; MCF-7, 72 h
  IC50: 0.525 ± 0.03 µM

## COc1ccc(C2C(Br)C(=O)N2c2cc(OC)c(OC)c(OC)c2)cc1F (stereo not shown) [Compound 16f, 3-Bromo-4-(3-fluoro-4-methoxyphenyl)-1-(3,4,5-trimethoxyphenyl) azetidin-2-one]
[1]; MCF-7, 72 h
  IC50: 0.39 ± 0.03 µM

## COc1ccc(C2C(Br)C(=O)N2c2cc(OC)c(OC)c(OC)c2)cc1Cl (stereo not shown) [Compound 16g, 3-Bromo-4-(3-chloro-4-methoxyphenyl)-1-(3,4,5-trimethoxyphenyl) azetidin-2-one]
[1]; MCF-7, 72 h
  IC50: 0.472 ± 0.2 µM

## COc1ccc(C2C(Br)C(=O)N2c2cc(OC)c(OC)c(OC)c2)cc1Br (stereo not shown) [Compound 16h, 3-Bromo-4-(3-bromo-4-methoxyphenyl)-1-(3,4,5-trimethoxyphenyl) azetidin-2-one]
[1]; MCF-7, 72 h
  IC50: 0.62 ± 0.04 µM

## COc1ccc(C2N(c3cc(OC)c(OC)c(OC)c3)C(=O)C2(Cl)Cl)cc1OP(=O)(O)O (stereo not shown) [Compound 18, 5-(3,3-Dichloro-1-(3,4,5-trimethoxyphenyl)-4-oxoazetidin-2-yl)-2-methoxyphenyl dihydrogen phosphate]
[1]
  IC50: 0.077 ± 0.01 µM
